Read-outs that look alike come from different tables or passages of the source.

The text below walks through data of patent US20230143604A1, “QW DOSING OF GIP RECEPTOR AGONIST PEPTIDE COMPOUNDS AND USES THEREOF” (TAKEDA PHARMACEUTICAL COMPANY LIMITED, priority 2020, published 2023).

For one data set, the system named is C57BL/6J mice. The data set is described as follows: Oral glucose tolerance test (OGTT). It is filed as in vivo. The settings on record: 3 nmol/kg s.c., 24 hours before glucose loading. As for the experimental part:
An oral glucose tolerance test (OGTT) was carried out using C57BL/6J mice with a 50% dextrose solution dosed at 5 ml/kg. Testing concentrations of 0.1 nmol/kg, 0.3 nmmol/kg, 3 nmol/kg or 10 nmol/kg were selected depending on the peptide. Each peptide or a vehicle (control group) was subcutaneously administered 24 hours (unless shown otherwise) before glucose loading and the blood glucose was measured at 0, 15, 30, and 60 minutes after glucose dosing.
% inhibition=(1−(AUC cpd−AUC naïve/AUC veh−AUC naïve))×100.

The next data set concerns the target T1, human GLP-1R (Homo sapiens, UniProt P43220).
T1 construct: HEK-293T cells overexpressing full-length human GLP-1R; FLAG (N); host or cells: HEK-293T
The data set is described as follows: Human GLP1R agonist activity, intracellular cAMP accumulation. It is filed as cell-based. The following applies: HEK-293T cells overexpressing human GLP-1R, 1 hr. In outline: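 Frozen assay-ready cells washed and resuspended at 4×10^5 cells/mL in Krebs Ringer buffer, then incubated with compound 1 hr at room temperature in the dark. cAMP read by HTRF (anti-cAMP antibody, d2-cAMP tracer). Normalised to 1 nm GLP-1 (100%) and DMSO (0%).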

A short description of data set [1]: Solubility in phosphate buffer pH 7.4. Put shortly:
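3 mg of peptide treated with 100 μL portions of 200 mM phosphate buffer pH 7.4, sonicating/vortexing up to 1 min, with further buffer added until fully dissolved. Solubility then quantified by HPLC.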

Where [2] appears, read: Human GLP1R cAMP EC50, HEK293T (nM).
The mark [3] stands for this setting: pH 7.4, aqueous buffer, pH 7.4 Phosphate Buffer - Solubility, 200 mM Phosphate buffer pH 7.4.
The mark [4] stands for this setting: pH 7.4, solubility in phosphate buffer at pH 7.4, 200 mM phosphate buffer pH 7.4.

T1 sequence (P43220 24-463): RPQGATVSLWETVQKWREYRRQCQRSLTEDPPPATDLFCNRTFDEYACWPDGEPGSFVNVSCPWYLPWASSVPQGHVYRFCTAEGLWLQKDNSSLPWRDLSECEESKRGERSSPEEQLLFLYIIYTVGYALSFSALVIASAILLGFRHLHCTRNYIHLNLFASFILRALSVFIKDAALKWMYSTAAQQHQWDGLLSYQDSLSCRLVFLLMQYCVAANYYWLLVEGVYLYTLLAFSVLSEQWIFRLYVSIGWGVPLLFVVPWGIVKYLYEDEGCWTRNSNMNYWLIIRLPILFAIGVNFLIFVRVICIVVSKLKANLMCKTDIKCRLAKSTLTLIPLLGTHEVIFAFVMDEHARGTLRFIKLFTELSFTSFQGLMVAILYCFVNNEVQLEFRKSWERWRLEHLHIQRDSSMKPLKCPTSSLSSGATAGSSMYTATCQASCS

Regarding `CC[C@H](C)[C@H](NC(=O)[C@H](CO)NC(=O)[C@H](Cc1ccc(O)cc1)NC(=O)[C@H](CC(=O)O)NC(=O)[C@H](CO)NC(=O)[C@@H](NC(=O)[C@H](Cc1ccccc1)NC(=O)[C@@H](NC(=O)CNC(=O)[C@H](CCC(=O)O)NC(=O)C(C)(C)NC(=O)[C@H](Cc1ccc(O)cc1)NC)[C@@H](C)O)[C@@H](C)CC)C(=O)N[C@@H](C)C(=O)N[C@@H](CCCCNC(=O)CNC(=O)CNC(=O)CNC(=O)CNC(=O)CNC(=O)CCCCCCCCCCCCCCCCC(=O)O)C(=O)N[C@@H](CC(=O)O)C(=O)N[C@@H](CCCNC(=N)N)C(=O)NC(C)(C)C(=O)N[C@@H](C)C(=O)N[C@@H](CCC(N)=O)C(=O)NC(C)(C)C(=O)N[C@@H](CC(=O)O)C(=O)N[C@@H](Cc1ccccc1)C(=O)N[C@H](C(=O)N[C@@H](CC(N)=O)C(=O)N[C@@H](Cc1c[nH]c2ccccc12)C(=O)N[C@@H](CC(C)C)C(=O)N[C@@H](CC(C)C)C(=O)N[C@@H](C)C(=O)N[C@@H](CCC(N)=O)C(=O)N[C@@H](CO)C(=O)N1CCC[C@H]1C(=O)N[C@@H](CO)C(=O)N[C@@H](CO)C(=O)NCC(=O)N[C@@H](C)C(=O)N1CCC[C@H]1C(=O)N1CCC[C@H]1C(=O)N1CCC[C@H]1C(=O)N[C@@H](CO)C(N)=O)C(C)C` [Compound 38], in the data set with C57BL/6J mice, the “Oral Glucose Tolerance Test Percent decrease in blood glucose AUC (%) over 60 mins” value is 97% (3 nmol/kg). Also, a half-maximal response at human GLP-1R (setting [2]) (EC50) required 45.7 nM. The solubility (in general, the dissolved amount per volume that the medium holds) in data set [1] (setting [3]) is at least 30 mg/mL; in data set [1] (setting [4]) it was at least 15 mg/mL.

Regarding `CC[C@H](C)[C@H](NC(=O)[C@H](Cc1ccccc1)NC(=O)[C@@H](NC(=O)CNC(=O)[C@H](CCC(=O)O)NC(=O)C(C)(C)NC(=O)[C@H](Cc1ccc(O)cc1)NC)[C@@H](C)O)C(=O)N[C@@H](CO)C(=O)N[C@@H](CC(=O)O)C(=O)N[C@@H](Cc1ccc(O)cc1)C(=O)N[C@@H](CO)C(=O)N[C@H](C(=O)NC(C)(C)C(=O)N[C@@H](CCCCNC(=O)CNC(=O)CNC(=O)CNC(=O)CNC(=O)CNC(=O)CCCCCCCCCCCCCCCCC(=O)O)C(=O)N[C@@H](CC(=O)O)C(=O)N[C@@H](CCCNC(=N)N)C(=O)NC(C)(C)C(=O)N[C@@H](C)C(=O)N[C@@H](CCC(N)=O)C(=O)NC(C)(C)C(=O)N[C@@H](CC(=O)O)C(=O)N[C@@H](Cc1ccccc1)C(=O)N[C@H](C(=O)N[C@@H](CC(N)=O)C(=O)N[C@@H](Cc1c[nH]c2ccccc12)C(=O)N[C@@H](CC(C)C)C(=O)N[C@@H](CC(C)C)C(=O)N[C@@H](C)C(=O)N[C@@H](CCC(N)=O)C(=O)N[C@@H](CO)C(=O)N1CCC[C@H]1C(=O)N[C@@H](CO)C(=O)N[C@@H](CO)C(=O)NCC(=O)N[C@@H](C)C(=O)N1CCC[C@H]1C(=O)N1CCC[C@H]1C(=O)N1CCC[C@H]1C(=O)N[C@@H](CO)C(N)=O)C(C)C)[C@@H](C)CC` [Compound 48], the “Oral Glucose Tolerance Test Percent decrease in blood glucose AUC (%) over 60 mins” value in the data set on C57BL/6J mice is recorded as 87% (3 nmol/kg). The EC50 (in general, the midpoint of the concentration-response curve) at human GLP-1R (setting [2]) amounted to 87.1 nM. In addition, the solubility is at least 30 mg/mL in data set [1] (setting [3]) and at least 15 mg/mL in data set [1] (setting [4]).

As for `CC[C@H](C)[C@H](NC(=O)[C@H](CO)NC(=O)[C@H](Cc1ccc(O)cc1)NC(=O)[C@H](CC(=O)O)NC(=O)[C@H](CO)NC(=O)[C@@H](NC(=O)[C@H](Cc1ccccc1)NC(=O)[C@@H](NC(=O)CNC(=O)[C@H](CCC(=O)O)NC(=O)C(C)(C)NC(=O)[C@H](Cc1ccc(O)cc1)NC)[C@@H](C)O)[C@@H](C)CC)C(=O)N[C@@H](C)C(=O)N[C@@H](CCCCNC(=O)CNC(=O)CNC(=O)CNC(=O)CNC(=O)CNC(=O)CCCCCCCCCCCCCCCCC(=O)O)C(=O)N[C@@H](CC(=O)O)C(=O)N[C@@H](CCCNC(=N)N)C(=O)NC(C)(C)C(=O)N[C@@H](C)C(=O)N[C@@H](CCC(N)=O)C(=O)NC(C)(C)C(=O)N[C@@H](CC(=O)O)C(=O)N[C@@H](Cc1ccccc1)C(=O)N[C@H](C(=O)N[C@@H](CC(N)=O)C(=O)N[C@@H](Cc1c[nH]c2ccccc12)C(=O)N[C@@H](CC(C)C)C(=O)N[C@@H](CC(C)C)C(=O)N[C@@H](C)C(=O)N[C@@H](CCC(N)=O)C(=O)N[C@@H](CO)C(=O)N1CCC[C@H]1C(=O)N[C@@H](CO)C(=O)N[C@@H](CO)C(=O)NCC(=O)O)C(C)C` [Compound 71], the “Oral Glucose Tolerance Test Percent decrease in blood glucose AUC (%) over 60 mins” value in the data set on C57BL/6J mice is listed as 68% (3 nmol/kg). The EC50 at human GLP-1R (read-out: Human GLP1R cAMP EC50, HEK293T) stood at 34.7 nM.

For the molecule `CC[C@H](C)[C@H](NC(=O)[C@H](CO)NC(=O)[C@H](Cc1ccc(O)cc1)NC(=O)[C@H](CC(=O)O)NC(=O)[C@H](CO)NC(=O)[C@@H](NC(=O)[C@H](Cc1ccccc1)NC(=O)[C@@H](NC(=O)CNC(=O)[C@H](CCC(=O)O)NC(=O)C(C)(C)NC(=O)[C@@H](N)Cc1ccc(O)cc1)[C@@H](C)O)[C@@H](C)CC)C(=O)N[C@@H](C)C(=O)N[C@@H](CCCCNC(=O)CNC(=O)CNC(=O)CNC(=O)CNC(=O)CNC(=O)CCCCCCCCCCCCCCCCC(=O)O)C(=O)N[C@@H](CC(=O)O)C(=O)N[C@@H](CCCNC(=N)N)C(=O)NC(C)(C)C(=O)N[C@@H](C)C(=O)N[C@@H](CCC(N)=O)C(=O)NC(C)(C)C(=O)N[C@@H](CC(N)=O)C(=O)N[C@@H](Cc1ccccc1)C(=O)N[C@H](C(=O)N[C@@H](CC(N)=O)C(=O)N[C@@H](Cc1c[nH]c2ccccc12)C(=O)N[C@@H](CC(C)C)C(=O)N[C@@H](CC(C)C)C(=O)N[C@@H](C)C(=O)N[C@@H](CCC(N)=O)C(=O)N[C@@H](CO)C(=O)N1CCC[C@H]1C(=O)N[C@@H](CO)C(=O)N[C@@H](CO)C(=O)NCC(=O)N[C@@H](C)C(=O)N1CCC[C@H]1C(=O)N1CCC[C@H]1C(=O)N1CCC[C@H]1C(=O)N[C@@H](CO)C(=O)O)C(C)C` [Compound 138], the “Oral Glucose Tolerance Test Percent decrease in blood glucose AUC (%) over 60 mins” value in the data set on C57BL/6J mice was 80% (3 nmol/kg). Besides, the figures for the solubility in data set [1] (setting [3]) and in data set [1] (setting [4]) were at least 30 mg/mL and at least 15 mg/mL, respectively.

For `CC[C@H](C)[C@H](NC(=O)[C@H](CO)NC(=O)[C@H](Cc1ccc(O)cc1)NC(=O)[C@H](CC(=O)O)NC(=O)[C@H](CO)NC(=O)[C@@H](NC(=O)[C@H](Cc1ccccc1)NC(=O)[C@@H](NC(=O)CNC(=O)[C@H](CCC(=O)O)NC(=O)C(C)(C)NC(=O)[C@@H](N)Cc1ccc(O)cc1)[C@@H](C)O)[C@@H](C)CC)C(=O)N[C@@H](C)C(=O)N[C@@H](CCCCNC(=O)CNC(=O)CNC(=O)CNC(=O)CNC(=O)CNC(=O)CCCCCCCCCCCCCCCCC(=O)O)C(=O)N[C@@H](CC(=O)O)C(=O)N[C@@H](CCCNC(=N)N)C(=O)NC(C)(C)C(=O)N[C@@H](C)C(=O)N[C@@H](CCC(N)=O)C(=O)NC(C)(C)C(=O)N[C@@H](CC(=O)O)C(=O)N[C@@H](Cc1ccccc1)C(=O)N[C@H](C(=O)N[C@@H](CCC(=O)O)C(=O)N[C@@H](Cc1c[nH]c2ccccc12)C(=O)N[C@@H](CC(C)C)C(=O)N[C@@H](CC(C)C)C(=O)N[C@@H](C)C(=O)N[C@@H](CCC(N)=O)C(=O)N[C@@H](CCCNC(=N)N)C(=O)NCC(=O)O)C(C)C` [Compound 144], in the data set on C57BL/6J mice, the “Oral Glucose Tolerance Test Percent decrease in blood glucose AUC (%) over 60 mins” value is on record as 35% (3 nmol/kg). Moreover, the solubility in data set [1] (pH 7.4) was at least 15 mg/mL; in data set [1] (pH 7.4, aqueous buffer) it was at least 30 mg/mL.

For the molecule `CC[C@H](C)[C@H](NC(=O)[C@H](Cc1ccccc1)NC(=O)[C@@H](NC(=O)CNC(=O)[C@H](CCC(=O)O)NC(=O)C(C)(C)NC(=O)[C@@H](N)Cc1ccc(O)cc1)[C@@H](C)O)C(=O)N[C@@H](CO)C(=O)N[C@@H](CC(=O)O)C(=O)N[C@@H](Cc1ccc(O)cc1)C(=O)N[C@@H](CO)C(=O)N[C@H](C(=O)NC(C)(C)C(=O)N[C@@H](CCCCNC(=O)CNC(=O)CNC(=O)CNC(=O)CNC(=O)CNC(=O)CCCCCCCCCCCCCCCCC(=O)O)C(=O)N[C@@H](CC(=O)O)C(=O)N[C@@H](CCCNC(=N)N)C(=O)NC(C)(C)C(=O)N[C@@H](C)C(=O)N[C@@H](CCC(N)=O)C(=O)N[C@@H](C)C(=O)N[C@@H](CC(=O)O)C(=O)N[C@@H](Cc1ccccc1)C(=O)N[C@H](C(=O)N[C@@H](CCC(=O)O)C(=O)N[C@@H](Cc1c[nH]c2ccccc12)C(=O)N[C@@H](CC(C)C)C(=O)N[C@@H](CC(C)C)C(=O)N[C@@H](C)C(=O)N[C@@H](CCC(N)=O)C(=O)N[C@@H](CCCNC(=N)N)C(=O)NCC(=O)O)C(C)C)[C@@H](C)CC` [Compound 146], in the data set with C57BL/6J mice, the “Oral Glucose Tolerance Test Percent decrease in blood glucose AUC (%) over 60 mins” value is 52% (3 nmol/kg). Besides, the solubility is at least 15 mg/mL in data set [1] (pH 7.4) and at least 30 mg/mL in data set [1] (pH 7.4, aqueous buffer).

With `CC[C@H](C)[C@H](NC(=O)[C@H](Cc1ccccc1)NC(=O)[C@@H](NC(=O)CNC(=O)[C@H](CCC(=O)O)NC(=O)C(C)(C)NC(=O)[C@@H](N)Cc1ccc(O)cc1)[C@@H](C)O)C(=O)N[C@@H](CO)C(=O)N[C@@H](CC(=O)O)C(=O)N[C@@H](Cc1ccc(O)cc1)C(=O)N[C@@H](CO)C(=O)N[C@H](C(=O)NC(C)(C)C(=O)N[C@@H](CCCCNC(=O)CNC(=O)CNC(=O)CNC(=O)CNC(=O)CNC(=O)CCCCCCCCCCCCCCCCC(=O)O)C(=O)N[C@@H](CC(=O)O)C(=O)N[C@@H](CCCNC(=N)N)C(=O)N[C@@H](C)C(=O)N[C@@H](C)C(=O)N[C@@H](CCC(N)=O)C(=O)N[C@@H](C)C(=O)N[C@@H](CC(=O)O)C(=O)N[C@@H](Cc1ccccc1)C(=O)N[C@H](C(=O)N[C@@H](CCC(=O)O)C(=O)N[C@@H](Cc1c[nH]c2ccccc12)C(=O)N[C@@H](CC(C)C)C(=O)N[C@@H](CC(C)C)C(=O)N[C@@H](C)C(=O)N[C@@H](CCC(N)=O)C(=O)N[C@@H](CCCNC(=N)N)C(=O)NCC(=O)O)C(C)C)[C@@H](C)CC` [Compound 148], the “Oral Glucose Tolerance Test Percent decrease in blood glucose AUC (%) over 60 mins” value with C57BL/6J mice was 51% (3 nmol/kg). The solubility is at least 15 mg/mL in data set [1] (pH 7.4) and at least 30 mg/mL in data set [1] (pH 7.4, aqueous buffer).
